Source: ChEMBL document CHEMBL1126372, “Synthesis of L-chiro-inositol 1,4,6-trisphosphorothioate, a potent and selective inhibitor of myo-inositol 1,4,5-trisphosphate 5-phosphatase” (Bioorg Med Chem Lett, 1992)
The source made the active and inactive calls.

Legend:
[1] = Tested for the ability to inhibit dephosphorylation of [3H]Ins(1,4,5)P3 of human erythrocyte membrane Ins(1,4,5)P3 5- phosphatase; format: functional
[2] = Inhibition of [3H]Ins(1,4,5)P3 phosphorylation by crude rat brain Ins(1,4,5)P3 3-kinase at 250 uM (Inactive); format: functional
[3] = Effective concentration required to mobilize [Ca2+] from intracellular stores using electrically permeabilised human neuroblastoma cells; format: functional, cell-based

EC50 [3] [µM]	Compound	Ki [1] [µM]	inhibition [2]
	O=P(O)(O)OC1C(O)C(O)C(OP(=O)(O)O)C(OP(O)(O)=S)C1O (stereo in doubt)	6.8	
	OC1C(O)C(OP(O)(O)=S)C(OP(O)(O)=S)C(O)C1OP(O)(O)=S (stereo in doubt)	1.7	
	OC1C(O)C(OP(O)(O)=S)C(OP(O)(O)=S)C(O)C1OP(O)(O)=S (stereo in doubt; 2)	350	
	O=P(O)(O)OC1C(O)C(O)C(OP(=O)(O)O)C(OP(O)(O)=S)C1O (stereo in doubt; 4)	978	
	OC1C(O)C(OP(O)(O)=S)C(OP(O)(O)=S)C(O)C1OP(O)(O)=S (stereo in doubt; 8) [listing 1 of 2 here]	0.3	
	OC1C(O)C(OP(O)(O)=S)C(OP(O)(O)=S)C(O)C1OP(O)(O)=S (stereo in doubt; 8) [listing 2 of 2 here]		inactive
0.12	O=P(O)(O)O[C@@H]1[C@H](O)[C@H](O)[C@@H](OP(=O)(O)O)[C@H](OP(=O)(O)O)[C@H]1O [INS(1,4,5)P3]	44	inactive
